Assay results reported in publication PMC6009911, “Inhibition of human cytochromes P450 2A6 and 2A13 by flavonoids, acetylenic thiophenes and sesquiterpene lactones from Pluchea indica and Vernonia cinerea” (Journal of Enzyme Inhibition and Medicinal Chemistry, 2017).
Where two headings read alike, the source gives them in different places. Marks after values point to notes of the source that are not given here.

What was measured:
CYP2A13 [1] = target: T1, CYP2A13 (Homo sapiens, UniProt Q16696); assay: Inhibition of CYP2A13-mediated coumarin 7-hydroxylation, enzymatic reconstitution assay; type: biochemical
T1 construct: made in house
T1 sequence (Q16696 1-494): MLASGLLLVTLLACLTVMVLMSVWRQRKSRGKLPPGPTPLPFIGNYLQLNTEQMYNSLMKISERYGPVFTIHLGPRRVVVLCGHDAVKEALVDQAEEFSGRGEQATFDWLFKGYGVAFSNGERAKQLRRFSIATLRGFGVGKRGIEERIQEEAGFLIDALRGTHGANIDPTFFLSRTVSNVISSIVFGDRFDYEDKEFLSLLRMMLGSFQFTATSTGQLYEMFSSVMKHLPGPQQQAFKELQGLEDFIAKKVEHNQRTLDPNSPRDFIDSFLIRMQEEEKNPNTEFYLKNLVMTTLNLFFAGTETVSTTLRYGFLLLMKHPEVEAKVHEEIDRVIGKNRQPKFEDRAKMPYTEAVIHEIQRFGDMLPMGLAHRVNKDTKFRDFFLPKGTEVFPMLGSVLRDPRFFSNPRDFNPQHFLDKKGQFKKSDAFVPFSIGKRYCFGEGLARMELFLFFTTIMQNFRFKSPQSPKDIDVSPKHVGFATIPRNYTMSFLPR
Procedure: Inhibitory effect of plant extracts, fractions, subfractions and constituents was determined by inhibition assay on CYP2A6- and CYP2A13-mediated coumarin 7-hydroxylation. The recombinant human CYP2A6, CYP2A13 and rat NADPH-dependent cytochrome P450 oxidoreductase (CYPOR) proteins were expressed, purified, according to the methods previously described. […] Rate of 7-hydroxycoumarin product formation was measured on spectrofluorometer (Shimadzu, Kyoto, Japan) at λex = 355 nm, λem = 460 nm. Inhibition effects were determined by incubation with extracts, fractions or purified compounds with coumarin substrate in the reaction mixture and calculated as per cent relative inhibition compared with vehicle control reaction[20] and IC50 values were calculated using GraphPad Prism 5 (GraphPad Software Inc., La Jolla, CA).
(§1) MBI requires NADPH and time to generate reactive intermediate as inhibitor and ultimately inactivates the enzyme. MBI was evaluated by pre-incubation with each test inhibitor in the reaction at different time periods (0, 10, 20 and 30 min) in the presence of NADPH for time-dependent assay, as described. The apparent inactivation constants, KI and Kinact, were obtained from double reciprocal plots of kobs versus inhibitor concentrations by linear regression analysis on GraphPad Prism 5. Methoxsalen was used as a control mechanism-based inhibitor for time- and NADPH-dependent inhibition assays.

CYP2A13 [2] = target: T1, CYP2A13; assay: Mechanism-based (time- and NADPH-dependent) inactivation of CYP2A13; type: biochemical; details: pre-incubation 0-30 min with NADPH
Procedure: as §1

CYP2A13 [3] = target: T1, CYP2A13; assay: Effects of trapping agents and dialysis on inactivation of CYP2A13; type: biochemical; details: CYP2A13 inhibition reaction mixture, probe coumarin, compound 10 µM
Procedure: as §1
To explore whether inactivation of CYP2As by thiophenes 9–11 and of CYP2A13 by hirsutinolides 5-8 could be reversed, the removal of reversible inhibitory compounds by dialysis and addition of trapping agents (GSH, semicarbazide, catalase or potassium ferricyanide) in the inhibition reaction mixture were performed. […] Similarly, mechanism-based inactivation of both CYP2A6 and CYP2A13 by thiophenes 9–11 could not be reversed (Table 3).

CYP2A13 [4] = target: T1, CYP2A13; assay: Inhibition of CYP2A13-mediated nicotine metabolism; type: biochemical; details: compound at IC50 value; nicotine 50 μM; 30 min; Supplemental Figure S2
Procedure: mixture with nicotine substrate (a final concentration of 50 μM) prior to initiation of each reaction with 50 μM NADPH at room temperature. Each reaction was terminated by addition of ice-cold acetronitrile at 30 min incubation and 50 pmol 7-hydroxycoumarin as internal standard was added. The reaction was centrifuged (12,000 rpm, 10 min, 4 °C) and 20 μl of each sample was analyzed on symmetry RP-C18 column (3.9×150 mm). Gradient condition was isocratic of 12% ACN: 2-propanol (7:3) in 10 mM potassium phosphate buffer (pH 7.4) at flow rate of 1 ml/min. The nicotine peak area in each reaction was compared with that of time zero. The enzyme activity was determined as percent substrate consumption over 30 min. The reactions were […]
(1 picture or pasted object on this page, not shown here)

CYP2A6 [5] = target: T2, CYP2A6 (Homo sapiens, UniProt P11509); details: ref Prasopthum et al., 2015, cited from earlier work
T2 sequence (P11509 1-494): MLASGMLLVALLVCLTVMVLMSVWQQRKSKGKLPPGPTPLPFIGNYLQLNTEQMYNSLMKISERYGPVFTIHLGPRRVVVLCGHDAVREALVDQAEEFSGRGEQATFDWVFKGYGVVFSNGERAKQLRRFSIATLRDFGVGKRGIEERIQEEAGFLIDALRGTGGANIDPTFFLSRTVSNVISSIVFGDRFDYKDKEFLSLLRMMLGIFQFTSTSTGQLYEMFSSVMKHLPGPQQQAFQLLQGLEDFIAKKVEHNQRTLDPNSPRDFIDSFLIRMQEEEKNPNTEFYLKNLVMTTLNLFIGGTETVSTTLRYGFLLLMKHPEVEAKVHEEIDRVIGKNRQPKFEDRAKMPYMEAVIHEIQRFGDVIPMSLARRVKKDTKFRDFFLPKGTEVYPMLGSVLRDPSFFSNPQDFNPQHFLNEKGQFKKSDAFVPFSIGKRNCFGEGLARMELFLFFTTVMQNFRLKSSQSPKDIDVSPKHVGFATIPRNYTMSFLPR

CYP2A6 [6] = target: T2, CYP2A6; design: made in house; details: ref Prasopthum et al., 2015, cited from earlier work
CYP2A6 [7] = target: T2, CYP2A6; design: made in house; method as in PMID 25857233; details: cited from earlier work

## C/C=C(\C)C(=O)OC1CC(C)C2(O)CCC(C)(/C=C3/OC(=O)C(COC(C)=O)=C31)O2 (stereo not drawn) [Hirsutinolide 6, 8α-tigloyloxyhirsutinolide-13-O-acetate]
CYP2A13 [1]
  CYP2A13 Mode of inhibition: Mixed type
CYP2A13 [1]; 10-min pre-incubation in the presence of NADPH, read-out: IC50 CYP2A13 Pre-incubation
  IC50: 7.66 ± 0.98 µM
CYP2A13 [1]; coincubation, coumarin 2 µM, read-out: IC50 CYP2A13 Coincubation
  IC50: 20.9 ± 1.46 µM
CYP2A13 [1]; coumarin 0–40 µM
  Ki: 7.97 ± 0.78 µM
CYP2A13 [2]
  kinact: 0.001 s⁻¹
CYP2A13 [2]; read-out: CYP2A13 KI (inactivation constant)
  KI (inactivation): 3.6 ± 1.05 µM
CYP2A13 [3]; read-out: Per cent remaining activity, 70 μM K3Fe(CN)6
  activity at 10 µM: 25.9 ± 1.87%
CYP2A13 [3]; read-out: Per cent remaining activity, 2 mM GSH
  activity at 10 µM: 33.6 ± 4.8%
CYP2A13 [3]; read-out: Per cent remaining activity, 5 mM semicarbazide
  activity at 10 µM: 25 ± 3.81%
CYP2A13 [3]; read-out: Per cent remaining activity, 2000 U catalase
  activity at 10 µM: 26.6 ± 3.86%
CYP2A13 [3]; read-out: Per cent remaining activity, Dialysis (+) NADPH
  activity at 10 µM: 22.8 ± 1.13%
CYP2A13 [3]; read-out: Per cent remaining activity, Dialysis (−) NADPH
  activity at 10 µM: 85.3 ± 4.98%
CYP2A13 [3]; read-out: Per cent remaining activity, Pre-incubation
  activity at 10 µM: 28.4 ± 2.92%
CYP2A13 [4]
  inhibition of CYP2A13-mediated nicotine metabolism: showed inhibition
CYP2A6 [5]; read-out: CYP2A6 KI (inactivation constant)
  KI (inactivation): 15.4 ± 1.8 µM
CYP2A6 [5]
  CYP2A6 Kinact: 0.03 ± 0.01^b
CYP2A6 [6]; 10-min pre-incubation in the presence of NADPH, read-out: IC50 CYP2A6 Pre-incubation
  IC50: 20.8 ± 1.1 µM
CYP2A6 [6]; coincubation, coumarin 2 µM, read-out: IC50 CYP2A6 Coincubation
  IC50: 37.8 ± 3.5 µM
CYP2A6 [6]; coumarin 0–40 µM
  Ki: 30.6 ± 1.5 µM
CYP2A6 [6]
  CYP2A6 Mode of inhibition: Mixed type^b
CYP2A6 [7]
  inhibition of CYP2A6-mediated nicotine metabolism: showed inhibition
